US11578321B2, “Recombinant HBV reporter system” (Helmholtz Zentrum München Deutsches Forschungszentrum für …, priority 2018, dated 2023)

Columns and labels:
rHBV-CreN [1] = assay: Detection of Cre-lox recombination by PCR in rHBV-CreN infected CreC/CIR cells; assay type: cell-based, hepatitis B virus; conditions: rHBV-CreN infected CreC/CIR cells treated with MyrB
Experimental: (§1) HepG2-NTCP-CreC/CIR cells were seeded on collagen-coated plates with a density of 1.34×10^3 cells/mm^2 and cultured in DMEM containing 2.5% dimethylsulfoxide (DMSO) for 2 days prior to infection. The inoculum was prepared by diluting the virus in DMEM containing 2.5% DMSO and 4% PEG8000. For blocking rHBV entry, Myrcludex B (200 nM) was added to the rHBV inoculum (Li and Urban, 2016, Cancer research 42, 3858-3863). The cells were inoculated for 24 hours and maintained in DMEM containing 2.5% DMSO for indicated time according to the experimental set-ups.
Genomic DNA of the cells was isolated using NucleoSpin® Tissue Kit (Macherey-Nagel, 740952.250). The Cre-lox recombination was analyzed by PCR using primers flanking the neomycin sequence (forward, 5′-[…]-3′ (SEQ ID NO: 29) and reverse, 5′-GGTACCGTCGACTGCAGAT-3′ (SEQ ID NO: 30)). The PCR was performed with 250 ng of genomic DNA and Phusion® Hot Start Flex DNA Polymerase (New England Biolabs, M0535S). The reaction required the following conditions: 1 cycle of denaturation at 98° C. for 30 seconds, 35 cycles of amplification (98° C. for 10 seconds, 61° C. for 30 seconds, 72° C. for 45 seconds), and 1 cycle of extension at 72° C. for 1 minute. The PCR products were examined by agarose gel electrophoresis.

rHBV-CreN [2] = assay: Western blot of Co-InCre reconstitution and core protein in rHBV-CreN infected CreC/CIR cells; assay type: cell-based, hepatitis B virus; conditions: rHBV-CreN infected CreC/CIR cells treated with MyrB
Experimental: as §1
Cellular proteins were isolated using RIPA buffer (Pierce, 89900) containing a protease inhibitor cocktail (Roche, 11836153001). The proteins were separated by 12% Sodium dodecyl sulphate-polyacrylamide gel electrophoresis (SDS-PAGE) and subsequently transferred onto a polyvinylidene difluoride (PVDF) membrane (Bio-Rad, 162-0177). The blotted membrane was blocked with 5% milk-TBST (20 mM Tris-HCl, pH7.4, 140 mM NaCl, 1% Tween 20). The antibodies were diluted in 1.5% milk-TBST. For core protein detection, an in-house hybridoma supernatant (8C9) was used in a 1:1 dilution. For Co-InCre detection, an anti-Cre antibody (Merck, 69050) was used in a 1:1000 dilution. […]-Actin (1:5000; Sigma, A5441) was used as a reference protein. […] The chemiluminescent signal was detected by Intas ECL ChemoCam.

rHBV-CreN [3] = assay: HBeAg ELISA of supernatant of rHBV-CreN infected CreC/CIR cells; assay type: cell-based, hepatitis B virus; conditions: rHBV-CreN MOI=250 with MyrB, day 7 post-infection
Experimental: as §1
The amount of HBeAg in cell-derived supernatants was measured using a commercial qualitative immunoassay—Enzygnost HBe monoclonal (Siemens, OQDM11) and automated BEP III system (Siemens Healthcare).

rHBV-CreN [4] = assay: rHBV-CreN infection of CreC/CIR reporter cells with entry inhibitor, DsRed-positive cells by flow cytometry; assay type: cell-based, hepatitis B virus
Experimental: as §1, with “For blocking rHBV entry, Myrcludex B (200 nM) was added to the rHBV inoculum (Li and Urban, 2016, Cancer research 42, 3858-3863).” left out
(§2) Cells were collected from 24-well plates using trypsin-versene at a 1:1 ratio (Gibco, 15400-054 and 15040-033). Cell pellets were resuspended in 1 ml of FACS buffer (PBS containing 1% BSA and 0.5 mM EDTA) and incubated with LIVE/DEAD™ Fixable Near-Infrared dead cell stain kit (Invitrogen, L10119). The samples were subjected to CytoFLEX S (Beckman Coulter) and the obtained data was analyzed by FlowJo software (v10, FlowJo LLC.).

[5] = test system: rHBV-CreN infected HepG2-NTCP-CreC/CIR cells; assay: Negative selection of rHBV-CreN infected cells with Neomycin, flow cytometry; assay type: cell-based, human; conditions: Neomycin 2 mg/ml for 30 days
Experimental: as §2

| Substance | 0.2-kb band (ΔNeo) PCR product (rHBV-CreN [1]) | Co-InCre detection (Western blot) (rHBV-CreN [2]) | core protein detection (Western blot) (rHBV-CreN [2]) | HBeAg level (rHBV-CreN [3]) | number of DsRed-positive cells (rHBV-CreN [4]; CreC/CIR cells, rHBV-CreN MOI=250, MyrB added to the inoculum, day 7 post-infection, FACS) | percentage of DsRed-positive cells (rHBV-CreN [4]; HepG2-NTCP-CreC/CIR cells, rHBV-CreN MOI=300 virions/cell, Myrcludex B 200 nM, 10 days post infection, flow cytometry) | reduction of the number of DsRed-positive cells compared to untreated group [5] |
| --- | --- | --- | --- | --- | --- | --- | --- |
| Myrcludex-B [MyrB] | absent | not detected | not detected | comparable to that of the mock sample | less than 1% | less than 1% | – |
| Neomycin | – | – | – | – | – | – | 3.6 fold |
